Laboratory results reported in patent publication US9745283B2, “Uracil derivatives as AXL and c-MET kinase inhibitors” (priority 2011, dated 2017).

Assays:
[1] = target: recombinant human baculovirus-expressed AXL (Homo sapiens (Human), UniProt P30530); assay: AXL Kinase Assay (HTRF KinEASE); type: biochemical; conditions: average of two or more determinations
[2] = target: recombinant human baculovirus-expressed cMET (Homo sapiens (Human), UniProt P08581); assay: C-MET Kinase Assay (HTRF KinEASE); type: biochemical; conditions: average of two or more determinations; read-out: c-MET IC50
Outline: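 HTRF KinEASE format with recombinant human baculovirus-expressed cMET at 8 ng/mL, biotinylated peptide at 0.1 μM and ATP at 0.02 μM. IC50 came from percent control activity versus log concentration, fitted by nonlinear regression to a variable-slope sigmoidal equation with bottom fixed at 0 and top at 100.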

IC50 [1] | IC50 [2] | Compound
< 10 nM | 10 to 100 nM | COc1cc2nccc(Oc3ccc(NC(=O)c4cn(C(C)C)c(=O)n(-c5ccc(F)cc5)c4=O)nc3)c2cc1OC [Example 34, 3-(4-Fluorophenyl)-1-isopropyl-2,4-dioxo-1,2,3,4-tetrahydropyrimidine-5-carboxylic acid [5-(6,7-dimethoxyquinolin-4-yloxy)-pyridin-2-yl]-amide]
< 10 nM | < 10 nM | COc1cc2nccc(Oc3ccc(NC(=O)c4c[nH]c(=O)n(-c5ccc(F)cc5)c4=O)cc3C)c2cc1OC [Example 149, 3-(4-Fluoro-phenyl)-2,4-dioxo-1,2,3,4-tetrahydro-pyrimidine-5-carboxylic acid [4-(6,7-dimethoxy-quinolin-4-yloxy)-3-methyl-phenyl]-amide]
< 10 nM | 10 to 100 nM | COc1cc2nccc(Oc3ccc(NC(=O)c4cn(CCCOCc5ccccc5)c(=O)n(-c5ccc(F)cc5)c4=O)cc3)c2cc1OC [Example 21, 1-(3-Benzyloxypropyl)-3-(4-fluorophenyl)-2,4-dioxo-1,2,3,4-tetrahydropyrimidine-5-carboxylic acid [4-(6,7-dimethoxyquinolin-4-yloxy)phenyl]-amide]
< 10 nM | < 10 nM | CCn1cc(C(=O)Nc2ccc(Oc3ccnc4cc(OC)c(OC)cc34)c(F)c2)c(=O)n(-c2ccc(F)cc2)c1=O [Example 1, 1-Ethyl-3-(4-fluorophenyl)-2,4-dioxo-1,2,3,4-tetrahydropyrimidine-5-carboxylicacid [4-(6,7-dimethoxyquinolin-4-yloxy)-3-fluorophenyl]amide]
< 10 nM | < 10 nM | C#CCn1cc(C(=O)Nc2ccc(Oc3ccnc4cc(OC)c(OC)cc34)c(F)c2)c(=O)n(-c2ccc(F)cc2)c1=O [Example 61, 3-(4-Fluoro-phenyl)-2,4-dioxo-1-prop-2-ynyl-1,2,3,4-tetrahydro-pyrimidine-5-carboxylic acid [4-(6,7-dimethoxy-quinolin-4-yloxy)-3-fluoro-phenyl]-amide]
< 10 nM | 10 to 100 nM | COc1cc2nccc(Oc3ccc(NC(=O)c4nn(C(C)C)c(=O)n(-c5ccc(F)cc5)c4=O)cc3F)c2cc1OC [Example 103, 4-(4-Fluoro-phenyl)-2-isopropyl-3,5-dioxo-2,3,4,5-tetrahydro-[1,2,4]triazine-6-carboxylic acid [4-(6,7-dimethoxy-quinolin-4-yloxy)-3-fluoro-phenyl]-amide]
< 10 nM | 10 to 100 nM | CCn1cc(C(=O)Nc2ccc(Oc3ccnc4cc(OC)c(OC)cc34)cc2F)c(=O)n(-c2ccc(F)cc2)c1=O [Example 87, 1-Ethyl-3-(4-fluoro-phenyl)-2,4-dioxo-1,2,3,4-tetrahydro-pyrimidine-5-carboxylic acid [4-(6,7-dimethoxy-quinolin-4-yloxy)-2-fluoro-phenyl]-amide]
< 10 nM | 10 to 100 nM | COc1cc2nccc(Oc3ccc(NC(=O)c4cn(CCc5ccccc5F)c(=O)n(-c5ccc(F)cc5)c4=O)cc3F)c2cc1OC [Example 78, 3-(4-Fluoro-phenyl)-1-[2-(2-fluoro-phenyl)-ethyl]-2,4-dioxo-1,2,3,4-tetrahydro-pyrimidine-5-carboxylic acid [4-(6,7-dimethoxy-quinolin-4-yloxy)-3-fluoro-phenyl]-amide]
< 10 nM | 10 to 100 nM | COc1cc(Oc2ccnc3cc(OC)c(OC)cc23)ccc1NC(=O)c1cn(C)c(=O)n(-c2ccc(F)cc2)c1=O [Example 144, 1-Methyl-3-(4-fluoro-phenyl)-2,4-dioxo-1,2,3,4-tetrahydro-pyrimidine-5-carboxylic acid [4-(6,7-dimethoxy-quinolin-4-yloxy)-2-methoxy-phenyl]-amide]
< 10 nM | < 10 nM | COc1cc2nccc(Oc3ccc(NC(=O)c4cn(CC=C(F)F)c(=O)n(-c5ccc(F)cc5)c4=O)cc3F)c2cc1OC [Example 14, 1-(3,3-Difluoro-allyl)-3-(4-fluorophenyl)-2,4-dioxo-1,2,3,4-tetrahydropyrimidine-5-carboxylic acid [4-(6,7-dimethoxyquinolin-4-yloxy)-3-fluorophenyl]-amide]
< 10 nM | 10 to 100 nM | COc1cc2nccc(Oc3ccc(NC(=O)c4cn(CC(C)C)c(=O)n(-c5ccc(F)cc5)c4=O)cc3F)c2cc1OC [Example 8, 3-(4-Fluorophenyl)-1-isobutyl-2,4-dioxo-1,2,3,4-tetrahydropyrimidine-5-carboxylic acid [4-(6,7-dimethoxyquinolin-4-yloxy)-3-fluorophenyl]-amide]
< 10 nM | < 10 nM | COc1cc2nccc(Oc3ccc(NC(=O)c4cn(CCCO)c(=O)n(-c5ccc(F)cc5)c4=O)c(F)c3)c2cc1OC [Example 51, 3-(4-Fluorophenyl)-1-(3-hydroxypropyl)-2,4-dioxo-1,2,3,4-tetrahydropyrimidine-5-carboxylic acid [4-(6,7-dimethoxy-quinolin-4-yloxy)-2-fluoro-phenyl]-amide]
< 10 nM | < 10 nM | COc1cc2nccc(Oc3ccc(NC(=O)c4cn(CCCO)c(=O)n(-c5ccc(F)cc5)c4=O)cc3F)c2cc1OC [Example 50, 3-(4-Fluorophenyl)-1-(3-hydroxypropyl)-2,4-dioxo-1,2,3,4-tetrahydropyrimidine-5-carboxylic acid [4-(6,7-dimethoxyquinolin-4-yloxy)-3-fluorophenyl]-amide]
< 10 nM | < 10 nM | COc1cc2nccc(Oc3ccc(NC(=O)c4cn(CC(=O)O)c(=O)n(-c5ccc(F)cc5)c4=O)cc3F)c2cc1OC [Example 71, [5-[4-(6,7-Dimethoxyquinolin-4-yloxy)-3-fluorophenylcarbamoyl]-3-(4-fluorophenyl)-2,4-dioxo-3,4-dihydro-2H-pyrimidin-1-yl]-acetic acid]
< 10 nM | 10 to 100 nM | COc1cc2nccc(Oc3ccc(NC(=O)c4cn(C[C@H](O)CO)c(=O)n(-c5ccc(F)cc5)c4=O)cc3F)c2cc1OC [Example 54, 1-((S)-2,3-Dihydroxypropyl)-3-(4-fluorophenyl)-2,4-dioxo-1,2,3,4-tetrahydropyrimidine-5-carboxylic acid [4-(6,7-dimethoxyquinolin-4-yloxy)-3-fluorophenyl]-amide]
< 10 nM | < 10 nM | CCn1cc(C(=O)Nc2ccc(Oc3ccnc4cc(OC)c(OC)cc34)cc2)c(=O)n(-c2ccc(F)cc2)c1=O [Example 28, 1-Ethyl-3-(4-fluorophenyl)-2,4-dioxo-1,2,3,4-tetrahydropyrimidine-5-carboxylic acid [4-(6,7-dimethoxyquinolin-4-yloxy)-phenyl]-amide]
< 10 nM | 10 to 100 nM | CCn1cc(C(=O)Nc2ccc(Oc3ccnc4cc(OC)c(OC)cc34)c(OC)c2)c(=O)n(-c2ccc(F)cc2)c1=O [Example 151, 1-Ethyl-3-(4-fluoro-phenyl)-2,4-dioxo-1,2,3,4-tetrahydro-pyrimidine-5-carboxylic acid [4-(6,7-dimethoxy-quinolin-4-yloxy)-3-methoxy-phenyl]-amide]
< 10 nM | < 10 nM | COc1cc2nccc(Oc3ccc(NC(=O)c4c[nH]c(=O)n(-c5ccc(F)cc5)c4=O)cc3F)c2cc1OC [Example 17, 3-(4-Fluorophenyl)-2,4-dioxo-1,2,3,4-tetrahydropyrimidine-5-carboxylic acid [4-(6,7-dimethoxyquinolin-4-yloxy)-3-fluorophenyl]-amide]
< 10 nM | < 10 nM | COc1cc2nccc(Oc3ccc(NC(=O)c4cn(C(C)C)c(=O)n(-c5ccc(F)cc5)c4=O)cc3)c2cc1OC [Example 23, 3-(4-Fluorophenyl)-1-isopropyl-2,4-dioxo-1,2,3,4-tetrahydropyrimidine-5-carboxylic acid [4-(6,7-dimethoxyquinolin-4-yloxy)phenyl]-amide]
< 10 nM | 10 to 100 nM | COCCCn1cc(C(=O)Nc2ccc(Oc3ccnc4cc(OC)c(OC)cc34)c(F)c2)c(=O)n(-c2ccc(F)cc2)c1=O [Example 7, 3-(4-Fluorophenyl)-1-(3-methoxypropyl)-2,4-dioxo-1,2,3,4-tetrahydropyrimidine-5-carboxylic acid [4-(6,7-dimethoxyquinolin-4-yloxy)-3-fluorophenyl]-amide]
< 10 nM | 10 to 100 nM | COc1cc2nccc(Oc3ccc(NC(=O)c4c[nH]c(=O)n(-c5ccc(F)cc5)c4=O)cc3OC)c2cc1OC [Example 150, 3-(4-Fluoro-phenyl)-2,4-dioxo-1,2,3,4-tetrahydro-pyrimidine-5-carboxylic acid [4-(6,7-dimethoxy-quinolin-4-yloxy)-3-methoxy-phenyl]-amide]
< 10 nM | < 10 nM | COc1cc2nccc(Oc3ccc(NC(=O)c4cn(C)c(=O)n(-c5ccc(F)cc5)c4=O)c(F)c3F)c2cc1OC [Example 146, 1-Methyl-3-(4-fluorophenyl)-2,4-dioxo-1,2,3,4-tetrahydro-pyrimidine-5-carboxylic acid [4-(6,7-dimethoxy-quinolin-4-yloxy)-2,3-difluoro-phenyl]-amide]
< 10 nM | < 10 nM | COc1cc2nccc(Oc3ccc(NC(=O)c4cn(CCN5CCCC5=O)c(=O)n(-c5ccc(F)cc5)c4=O)cc3F)c2cc1OC [Example 68, 3-(4-Fluoro-phenyl)-2,4-dioxo-1-[2-(2-oxo-pyrrolidin-1-yl)-ethyl]-1,2,3,4-tetrahydro-pyrimidine-5-carboxylic acid [4-(6,7-dimethoxy-quinolin-4-yloxy)-3-fluoro-phenyl]-amide]
< 10 nM | 10 to 100 nM | CCn1cc(C(=O)Nc2ccc(Oc3ccnc4cc(OC)c(OC)cc34)c(C(F)(F)F)c2)c(=O)n(-c2ccc(F)cc2)c1=O [Example 159, 1-Ethyl-3-(4-fluoro-phenyl)-2,4-dioxo-1,2,3,4-tetrahydro-pyrimidine-5-carboxylic acid [4-(6,7-dimethoxy-quinolin-4-yloxy)-3-trifluoromethyl-phenyl]-amide]
